14 molecules from patent US8778958B2, “Synthesis of metabolically stable agents for alcohol and drug abuse” (priority 2008, dated 2014) can be followed below.

The subject of data set [1] is rats trained to self-administer a 10% (w/v) ethanol solution. Kind of data set: Operant oral ethanol self-administration. Format: in vivo, rat. To be noted: for ED50: Rattus norvegicus, po, read-out: ED50 for ethanol self-administration; for Overall effect on operant self-administration of 10% ethanol: ANOVA, treatment 30 min prior to testing.
Experimental: (§1) Ethanol or saccharin (SACC) self-administration training was conducted in standard operant cages (Coulbourn Instruments, PA) located in sound-attenuated, ventilated cubicles. Two 35-ml syringes dispensed either ethanol/SACC or water through plastic tubing into two stainless steel drinking cups mounted 4 cm above the grid floor and centered on the front panel of each chamber. Each drinking cup held 2 reinforcer deliveries (0.1 ml fluid/reinforcer). Two retractable levers were located 4.5 cm to either side of the drinking cups. Fluid delivery and recording of operant responses were controlled by a microcomputer. Briefly, animals were trained to voluntarily self-administer 10% (w/v) ethanol (n=10) or saccharin (n=6) by the oral route using the saccharin fadeout method^39 and were tested for their response for ethanol or saccharin solution in a two-lever free choice situation. Once baseline ethanol and saccharin intake were achieved (i.e., when responding across 3 consecutive days varied less than 20% and response rates correspond to pharmacologically relevant blood alcohol levels (BALs)), dose response testing for each compound commenced. To allow for a complete dissipation of any carry-over effects, a one week washout period, where rats were re-baselined during daily 30 min operant sessions, occurred between testing of each compound.
(§2) Data were collected on-line simultaneously from multiple operant chambers. Results of the operant procedure are reported as mean cumulative number of bar presses for ethanol or saccharin. In general, tests for homogeneity of variance were first performed on the data. […] Data were analyzed using the StatView statistical package on a PC-compatible computer. Mixed-design ANOVAs were used with drug treatments as a within-subjects factor (i.e., repeated measures design for drug treatment). A priori analysis examining individual drug doses to vehicle control dose was conducted using paired t-tests. Significant drug effects were defined as having p<0.05 compared to vehicle-treated rats.
The test system of data set [2] is rats self-administering 0.5 mg/kg/injection of cocaine. Put plainly: Cocaine self-administration, short (ShA) and long access (LgA).
Data set [3] relates to rats trained to orally self-administer a 0.025% saccharin solution. Put plainly: Operant oral saccharin self-administration (control). It counts as in vivo, rat. The following applies: for Overall effect on operant self-administration of saccharin vs vehicle: ANOVA.
Experimental: as §1, §2
Data set [4] is described as follows: Metabolic stability, mouse liver microsomes. To be noted: for half-life at 40 μM: mouse, microsomes, pH 7.4; for Half Life, Mouse liver preparation: 40 μM test compound, NADPH-generating system, NC = No Change. In general terms: Microsomes from liver hold many membrane-bound enzymes, among them those of drug oxidation.
Experimental: (§3) A typical assay mixture contained rat or mouse liver microsomes or human liver S-9 (0.4-0.5 mg of protein), 100 μM potassium phosphate buffer (pH 7.4), 40 μM test compound, an NADPH-generating system consisting of 0.5 mM NADP^+, 0.5 mM glucose-6-phosphate, 5 IU/mL glucose-6-phosphate dehydrogenase, 1 mg/mL DETAPAC and 7 mM MgCl2 for a final incubation volume of 0.1 mL^23. […] After centrifugation at 13,000 rpm for 5 min, the organic fraction was collected and the solvent was removed with a stream of argon. The residue was reconstituted in methanol (200 L), centrifuged at 13,000 rpm for 5 min and the supernatant was analyzed by high-performance liquid chromatography with an Axxi-chrom (straight-phase) silica column (4.6 mm×250 mm, 5 m) or with a Supelco (reverse-phase) HS F5 pentafluorophenyl column (4.6 mm×250 mm, 5 m) as described above.
A short description of data set [5]: Metabolic stability, human liver S-9. The following applies: for half-life at 40 μM: human, s9, pH 7.4; for Half Life, Human liver preparation: 40 μM test compound, NADPH-generating system, NC = No Change.
Experimental: as §3
Data set [6] deals with T1, NOP (nociceptin) receptor (Homo sapiens, UniProt P41146).
Data set [7] has as its target T2, μ-opioid receptor (Mus musculus, UniProt P42866).
T2 construct: FLAG; expressed in transfected cells
Kind of data set: biochemical. Format: biochemical, human. The following applies: read-out: Emax, μ, inhibition of basal [35S]GTPγS binding. For orientation: GTPγS is a poorly hydrolysed GTP analogue; its binding reports G protein activation.

Data set [8] can be described thus: Solubility in H2O. To be noted: salt as labelled.
Data set [9] deals with T2, μ-opioid receptor. Put plainly: biochemical. On the set-up: species or system human.
The target in data set [10] is T3, κ-opioid receptor (Mus musculus, UniProt P33534).
T3 construct: FLAG; expressed in transfected cells
Kind of data set: biochemical. Also on record: species or system human.

Data set [11] deals with T4, δ-opioid receptor (Mus musculus, UniProt P32300).
T4 construct: hemagglutinin (HA); expressed in transfected cells
Kind of data set: biochemical. It counts as biochemical, human. The following applies: read-out: Emax, δ, inhibition of basal [35S]GTPγS binding.

In data set [12] the target is T4, δ-opioid receptor. Kind of data set: biochemical. On the set-up: species or system human.
A short description of data set [13]: Metabolism of compound 6 in human liver microsomes. The following applies: going from pH 7.4 to pH 10.
Experimental: For analysis, 50 μg of 6,6-N-oxide and bromobenzoic acid was used as TLC standards and the UV-vis bands corresponding to these regions were scraped and placed in scintillation vials for counting and quantification. For the HPLC assay, the incubation was stopped by the addition of isopropanol/CH2Cl2 (3/1, v/v), mixed thoroughly and the organic layer was separated by centrifugation. […] The analytes were quantified on the basis of HPLC peak height.
The target of data set [14] is T1, NOP (nociceptin) receptor. Put plainly: Inhibition of basal [35S]GTPγS binding (inverse agonism), NOP. Format: biochemical. On the set-up: FLAG; expressed in transfected cells.
For data set [15], the system named is T5, κ-opioid receptor.
T5 construct: FLAG; expressed in transfected cells
Put plainly: biochemical. It counts as biochemical, human. The following applies: read-out: Emax, κ, inhibition of basal [35S]GTPγS binding.

The mark [16] stands for this setting: doses of 0.0125, 0.025 and 0.05 mg/kg.
Setting [17] is: read-out: Emax, μ, stimulation of [35S]GTPγS binding.
Setting [18] is: read-out: Emax, κ, stimulation of [35S]GTPγS binding.
Where [19] appears, read: read-out: Emax, δ, stimulation of [35S]GTPγS binding.

Like-named read-outs stand apart in the source and are kept apart here.

T2 sequence (P42866 whole entry): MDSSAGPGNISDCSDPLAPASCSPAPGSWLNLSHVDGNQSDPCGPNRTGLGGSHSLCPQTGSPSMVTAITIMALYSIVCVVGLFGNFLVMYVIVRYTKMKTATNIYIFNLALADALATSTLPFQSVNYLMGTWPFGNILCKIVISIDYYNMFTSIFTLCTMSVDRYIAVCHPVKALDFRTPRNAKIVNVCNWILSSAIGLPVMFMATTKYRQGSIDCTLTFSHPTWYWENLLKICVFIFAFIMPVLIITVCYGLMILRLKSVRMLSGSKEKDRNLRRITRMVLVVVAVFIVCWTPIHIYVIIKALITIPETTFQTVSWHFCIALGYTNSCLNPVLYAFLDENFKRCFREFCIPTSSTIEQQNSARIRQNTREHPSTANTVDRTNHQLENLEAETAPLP
T1 sequence (P41146 whole entry): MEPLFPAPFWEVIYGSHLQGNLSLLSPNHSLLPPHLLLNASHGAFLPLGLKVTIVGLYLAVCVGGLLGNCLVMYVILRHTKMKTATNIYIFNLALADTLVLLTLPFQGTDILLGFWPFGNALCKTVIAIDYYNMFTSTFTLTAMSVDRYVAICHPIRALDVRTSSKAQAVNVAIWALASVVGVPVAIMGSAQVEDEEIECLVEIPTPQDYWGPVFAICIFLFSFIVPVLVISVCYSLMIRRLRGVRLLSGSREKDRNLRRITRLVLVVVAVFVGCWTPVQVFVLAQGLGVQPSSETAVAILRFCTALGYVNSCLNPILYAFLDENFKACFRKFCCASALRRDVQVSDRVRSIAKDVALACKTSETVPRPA
T3 sequence (P33534 whole entry): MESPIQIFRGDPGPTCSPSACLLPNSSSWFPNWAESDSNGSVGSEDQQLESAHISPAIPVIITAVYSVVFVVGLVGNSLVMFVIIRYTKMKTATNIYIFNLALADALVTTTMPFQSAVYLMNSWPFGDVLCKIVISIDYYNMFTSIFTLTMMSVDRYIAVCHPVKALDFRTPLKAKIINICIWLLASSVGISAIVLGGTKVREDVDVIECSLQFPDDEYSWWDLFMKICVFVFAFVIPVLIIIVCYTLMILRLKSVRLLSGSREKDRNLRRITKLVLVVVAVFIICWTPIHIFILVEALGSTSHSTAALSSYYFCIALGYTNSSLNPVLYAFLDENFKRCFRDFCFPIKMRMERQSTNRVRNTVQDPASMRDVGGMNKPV
T4 sequence (P32300 whole entry): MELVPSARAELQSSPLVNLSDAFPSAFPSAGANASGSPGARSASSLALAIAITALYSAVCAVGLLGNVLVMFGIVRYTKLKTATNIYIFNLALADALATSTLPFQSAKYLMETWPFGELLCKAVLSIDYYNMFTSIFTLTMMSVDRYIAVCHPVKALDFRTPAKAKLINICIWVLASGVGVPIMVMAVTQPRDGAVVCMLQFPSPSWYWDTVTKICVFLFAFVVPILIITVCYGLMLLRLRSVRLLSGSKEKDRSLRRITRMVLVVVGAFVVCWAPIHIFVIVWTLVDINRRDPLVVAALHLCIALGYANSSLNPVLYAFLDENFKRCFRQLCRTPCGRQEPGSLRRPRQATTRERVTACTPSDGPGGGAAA
T5 sequence (P33534 whole entry): as the sequence (P33534 whole entry) above

On to `O=C1CC[C@@]2(O)[C@H]3Cc4ccc(O)c5c4[C@@]2(CCN3CC2CC2)[C@H]1O5` [Compound 1a, naltrexone, reference compound], for which the ED50 in data set [1] is around 0.5 mg/kg. Also, the “Cocaine intake, schedule not stated” value in data set [2] is given as “decreased cocaine intake in both groups”.

Regarding `C=C1CC[C@@]2(O)[C@H]3Cc4ccc(O)c5c4[C@@]2(CCN3CC2CC2)[C@H]1O5` [Compound 1b, nalmefene, reference compound], the “Overall effect on operant self-administration of 10% ethanol” value (from here on “Overall effect … of 10% ethanol”) in data set [1] was “had an overall effect”. For the same molecule, the ED50 in [1] is around 0.04 mg/kg. For the same molecule, the “Post hoc analysis vs vehicle, operant self-administration of 10% ethanol” value (“Post hoc analysis vs vehicle … of 10% ethanol” below) in data set [1] (setting [16]) is “significantly inhibited”. For the same molecule, the “Overall effect on operant self-administration of saccharin vs vehicle” value (shortened to “Overall effect … vs vehicle”) in data set [3] is “did not have an overall effect”. Besides, the half-life at 40 μM in data set [4] and in data set [5] was 20 min throughout.

Consider `Cc1ccc(C(=O)N[C@@H]2CC[C@@]3(O)[C@H]4Cc5ccc(O)c6c5[C@@]3(CCN4CC3CC3)[C@H]2O6)cc1` [Compound 4, 6-β-(4′-Methyl)benzamido-14-hydroxy-17-(cyclopropylmethyl) nordesmorphine], for which the melting point (in general, the temperature, or range, at which the solid turns liquid) is 207.6 °C. For the same molecule, the maximal effect (Emax) (in general, the greatest response seen or fitted, relative to the assay's reference) in data set [6] was determined as 0%. The “Half Life, Mouse liver preparation” value in data set [4] is on record as “remained unchanged”. Also, the “Half Life, Human liver preparation” value in data set [5] was “remained unchanged”. In data set [7], the Emax is 3 ± 2.4%.

In the case of `Cc1ccc(C(=O)N[C@@H]2CC[C@@]3(O)[C@H]4Cc5ccc(O)c6c5[C@@]3(CCN4CC3CC3)[C@H]2O6)cc1.O=C(O)C(=O)O` [Compound 4-oxalate, 6-β-(4′-Methyl)benzamido-14-hydroxy-17-(cyclopropylmethyl) nordesmorphine oxalate], the “Solubility in H2O” value in data set [8] is reported as 2 mg/mL.

The molecule `O=C(N[C@@H]1CC[C@@]2(O)[C@H]3Cc4ccc(O)c5c4[C@@]2(CCN3CC2CC2)[C@H]1O5)c1ccc(C(F)(F)F)cc1` [Compound 5, 6-β-(4′-Trifluoromethyl)benzamido-14-hydroxy-17-(cyclopropylmethyl)nordesmorphine] registered a melting point of 157.5 °C. For the same molecule, in data set [6], the Emax worked out at 0%. Moreover, the “Overall effect … of 10% ethanol” value in [1] is reported as “had an overall effect”. The “Post hoc analysis vs vehicle … of 10% ethanol” value in [1] (setting [16]) was “significantly inhibited”. In data set [9] (setting [17]), the maximal response (Emax) was 28 to 63%. Also, the “Overall effect … vs vehicle” value in [3] is “did have an overall effect”. Further, the “Post-hoc analysis vs vehicle, self-administration of saccharin” value in data set [3] ([…] for 5, 0.05 mg/kg for 6, the only such doses) was “significantly inhibited”. In addition, the “Half Life, Mouse liver preparation” value in data set [4] is given as “remained unchanged”. Further, the “Half Life, Human liver preparation” value in data set [5] was “remained unchanged”. Moreover, the maximal effect (Emax) in data set [10] (setting [18]) fell in the range of 28 to 63%.

As to `O=C(N[C@@H]1CC[C@@]2(O)[C@H]3Cc4ccc(O)c5c4[C@@]2(CCN3CC2CC2)[C@H]1O5)c1ccc(C(F)(F)F)cc1.O=C(O)C(=O)O` [Compound 5-oxalate, 6-β-(4′-Trimethylfluoro)benzamido-14-hydroxy-17-(cyclopropylmethyl)nordesmorphine-oxalate], the “Solubility in H2O” value in data set [8] came to 1 mg/mL.

With `O=C(N[C@@H]1CC[C@@]2(O)[C@H]3Cc4ccc(O)c5c4[C@@]2(CCN3CC2CC2)[C@H]1O5)c1ccc(Br)cc1` [Compound 6, 6-β-(4′-Bromo)benzamido-14-hydroxy-17-(cyclopropylmethyl) nordesmorphine], the Emax in data set [11] is 35 ± 4.8%; in data set [6], 0%; in data set [12] (setting [19]), 28 to 63%; in data set [9] (setting [17]), 28 to 63%; in data set [14] (read-out: Emax, NOP, inhibition of basal [35S]GTPγS binding), 92 ± 7.4%; in data set [10] (setting [18]), 28 to 63%. In addition, the maximum response (Emax) in [7] and in data set [15] was 0% each time. Besides, the “Emax, δ, stimulation of [35S]GTPγS binding” value in [12] came to 46 ± 3.7%. Besides, the “Rate of N-oxide formation, dependence on pH” value in data set [13] is listed as “the rate doubled”. In addition, in [9], the “Emax, μ, stimulation of [35S]GTPγS binding” value came to 38 ± 4.3%. Also, the EC50 (as a rule, the concentration at which the effect is half-maximal) in data set [14] was 94 ± 33 nM. The half-life at 40 μM in data set [4] and in data set [5] was above 112 min throughout. Also, the “Emax, κ, stimulation of [35S]GTPγS binding” value in [10] was 42 ± 3.9%.

Consider `O=C(N[C@@H]1CC[C@@]2(O)[C@H]3Cc4ccc(O)c5c4[C@@]2(CCN3CC2CC2)[C@H]1O5)c1ccc(Br)cc1.O=C(O)C(=O)O` [Compound 6-oxalate, 6-β-(4′-Bromo)benzamido-14-hydroxy-17-(cyclopropylmethyl) nordesmorphine-oxalate], for which, in [8], the “Solubility in H2O” value is 0.2 mg/mL. For the same molecule, in [2], the “Cocaine intake, schedule not stated” value is recorded as “decreased cocaine intake in both groups” and the “Cocaine self-administration under a PR schedule” value is “dose-dependently decreased cocaine self-administration”.

`O=C(N[C@@H]1CC[C@@]2(O)[C@H]3Cc4ccc(O)c5c4[C@@]2(CCN3CC2CC2)[C@H]1O5)c1ccc(I)cc1` [Compound 7, 6-β-(4′-Iodo)benzamido-14-hydroxy-17-(cyclopropylmethyl)nordesmorphine]: the values for the maximum response (Emax) in data set [6], in data set [12] (setting [19]) and in data set [9] (setting [17]) were 0%, 28 to 63% and 28 to 63%, respectively. Moreover, in data set [1], the “Overall effect … of 10% ethanol” value is listed as “had an overall effect”. The “Post hoc analysis vs vehicle … of 10% ethanol” value in data set [1] (only a dose of 0.05 mg/kg) is “significantly inhibited”. Moreover, the “Overall effect … vs vehicle” value in data set [3] is listed as “did have an overall effect”.

`CC(C)(C)c1ccc(C(=O)N[C@@H]2CC[C@@]3(O)[C@H]4Cc5ccc(O)c6c5[C@@]3(CCN4CC3CC3)[C@H]2O6)cc1` [Compound 8, 6-(4′-t-Butyl)benzamido-14-hydroxy-17-(cyclopropylmethyl)nordesmorphine] registered a melting point of 151.1 °C. In addition, the Emax in data set [6] is 0%. Besides, the “Overall effect … of 10% ethanol” value in data set [1] is recorded as “had an overall effect”. The “Post hoc analysis vs vehicle … of 10% ethanol” value in data set [1] (only a dose of 0.05 mg/kg) is “significantly inhibited”. Also, the “Overall effect … vs vehicle” value in data set [3] is listed as “did not have an overall effect”. Further, the half-life – broadly, the time needed for the level to fall by half in the phase considered – at 40 μM in data set [4] was above 112 min. The half-life at 40 μM in [5] was above 112 min.

With `CC(C)(C)c1ccc(C(=O)N[C@@H]2CC[C@@]3(O)[C@H]4Cc5ccc(O)c6c5[C@@]3(CCN4CC3CC3)[C@H]2O6)cc1.O=C(O)C(=O)O` [Compound 8-oxalate, 6-β-(4′-t-Butyl)benzamido-14-hydroxy-17-(cyclopropylmethyl)nordesmorphine-oxalate], the “Solubility in H2O” value in data set [8] is recorded as 6 mg/mL.

With `O=C(N[C@@H]1CC[C@@]2(O)[C@H]3Cc4ccc(O)c5c4[C@@]2(CCN3CC2CC2)[C@H]1O5)c1ccc(Cl)cc1` [Compound 10, 6-β-(4′-Chloro)benzamido-14-hydroxy-17-(cyclopropylmethyl)nordesmorphine], the melting point is 188.8 °C. For the same molecule, the Emax in data set [11] is 0%. Also, the maximum response (Emax) in data set [12] (setting [19]) came to 22 ± 1.7%. Moreover, in [12] (read-out: Emax, δ, stimulation of [35S]GTPγS binding, percentage of basal [35S]GTPγS binding stimulation), the maximal effect (Emax) lay within 28 to 63%. Also, the Emax in data set [9] (setting [17]) worked out at 46 ± 3.8%. In addition, the maximum response (Emax) in data set [9] (read-out: Emax, μ, stimulation of [35S]GTPγS binding, percentage of basal [35S]GTPγS binding stimulation) lay within 28 to 63%. Besides, a half-maximal response in [14] (EC50) required 88 ± 19 nM. Moreover, the maximal effect (Emax) in data set [10] (read-out: Emax, κ, stimulation of [35S]GTPγS binding, percentage of basal [35S]GTPγS binding stimulation) was 28 to 63%. Further, the maximal response (Emax) in data set [7] came to 0%. Moreover, in data set [15], the maximal response (Emax) turned out to be 0%.

For `Oc1ccc2c3c1O[C@H]1c4[nH]c5c(c4C[C@@]4(O)[C@@H](C2)N(CC2CC2)CC[C@]314)C[C@@]1(O)[C@H]2Cc3ccc(O)c4c3[C@@]1(CCN2CC1CC1)[C@H]5O4` [Nor-BNI, reference compound], in [2], the “Cocaine self-administration under a PR schedule” value is recorded as “decreased cocaine intake in LgA rats”.

“[D-pen2, D-pen5]-enkephalin [Compound 14, reference compound]”: the Emax in [6] worked out at 0%.
